Here are results for 2 molecules from patent publication US20250197408A1, “CRYSTALLINE FORMS AND SALTS OF A PI3K INHIBITOR AND METHODS OF MAKING AND METHODS OF USE THEREOF” (Totus Medicines Inc., priority 2022, published 2025).

A short description of series [1]: Dynamic vapor sorption (DVS) analysis at 25° C. Type of series: physicochemical. As to the method: In one embodiment, the crystalline forms are characterized by Dynamic Vapor Sorption (DVS). The DVS profile is typically expressed by a diagram plotting the sample relative humidity (RH) versus the change in mass (%). The DVS profile provides information on hygroscopicity of the crystalline form at different RH conditions.
A DVS (dynamic vapor sorption) analysis at 25° C. was carried out on Form A** of Compound I benzenesulfonate salt as shown in FIG. 3D.

Series [2] in a line: Solubility in 7 aqueous pH buffers and bio-relevant fluids at 37° C. (HPLC of supernatant; residual solids by XRPD). Type of series: physicochemical. As to the method:
20 mg of the free base Form A of Compound I was weighed into a 20 mL glass vial. Amounts of the salts equivalent to 20 mg anhydrous free base were weighed into a glass vial. 10 mL of solubility medium was added. The resulting suspensions/solutions were stirred at 37° C. at 400 rpm and sampled at 2 hours and at 24 hours, respectively. The samples were centrifuged at 37° C. at 14,000 rpm for 5 min. Supernatants were analyzed by HPLC and pH meter for solubility and pH value, respectively. Residual solids (wet cakes) from the 24 hours samples were also characterized by XRPD to determine physical form.
Residual solids after the solubility test were analyzed by XRPD.

For a further series, the system named is UM-UC-3 (bladder). The experiment in a line: Cell proliferation assay (CellTiter-Glo, 3 days treatment), UM-UC-3. In kind it is cell-based. Particulars: read-out: Absolute IC50. An excerpt: (§1) The cell lines tested included as follows: UM-UC-3 (bladder), KYSE-410 (HN/Esophagus), SW1463 (rectum), Calu-1 (Lung), NCI-H358 (Lung), SW837 (Rectum), SW756 (Cervix), NCI-H2122 (Lung), NCI-H1373 (Lung), NCI-H1792 (Lung), NCI-H23 (Lung), MIA PaCa-2 (Pancreas), and HC44.
(§2) Cells were recovered and maintained in appropriate culture media. The cells were harvested respectively during the logarithmic growth period. The cells were then resuspended and counted using a Vi cell counter (The cell viability be measured by trypan blue exclusion assay.). The cells were then diluted and 90 μL cell suspensions were used in 96-well plates according to plate map with final cell density. Two duplicate plates were set up. One is for day 0 reading (TO) and the other was cultured in incubator for reading at the end point. The incubated plates were incubated overnight in humidified incubator at 37° C. with 5% CO2.
(§3) At day 0, 10 μL culture medium to each well for TO reading. 10 μL of culture medium was added to each well for TO reading. Then, 50 μl CellTiter-Glo® Reagent was added to each well. […] Luminescence was then recorded using an EnVision Multi Label Reader. […]
(§4) For the endpoint CTG reading, 50 μL of CellTiter-Glo® Reagent were added to each well. […] Luminescence was then recorded using an EnVision Multi Label Reader. IC50's were determined for each cell line.

For another series, the system named is SW756 (Cervix). The experiment in a line: Cell proliferation assay (CellTiter-Glo, 3 days treatment), SW756. Type of series: cell-based. To be noted: read-out: Absolute IC50.
Text: as §1, §2, §3, §4

The subject of a further series is SW837 (Rectum). The experiment in a line: Cell proliferation assay (CellTiter-Glo, 3 days treatment), SW837. In kind it is cell-based. Particulars: read-out: Absolute IC50.
Text: as §1, §2, §3, §4

The test system of another series is KYSE-410 (HN/Esophagus). The experiment in a line: Cell proliferation assay (CellTiter-Glo, 3 days treatment), KYSE-410. Type of series: cell-based. To be noted: read-out: Absolute IC50.
Text: as §1, §2, §3, §4

The subject of another series is Calu-1 (Lung). The experiment in a line: Cell proliferation assay (CellTiter-Glo, 3 days treatment), Calu-1. In kind it is cell-based. Particulars: read-out: Absolute IC50.
Text: as §1, §2, §3, §4

Another series has as its system NCI-H358 (Lung). The experiment in a line: Cell proliferation assay (CellTiter-Glo, 3 days treatment), NCI-H358. Type of series: cell-based. Particulars: NCI-H358 (Lung), 3 days treatment; read-out: Absolute IC50.
Text: as §1, §2
At day 0, 10 μL culture medium to each well for TO reading. Then, 50 μl CellTiter-Glo® Reagent was added to each well. The contents were then mixed for 2 minutes on an orbital shaker to facilitate cell lysis. The plates were then allowed to incubate at room temperature for 10 minutes to stabilize luminescent signal. Luminescence was then recorded using an EnVision Multi Label Reader. The test compound Compound I, and a control cisplatin, where then diluted at various concentrations from a 10 mM stock solution. Compound I was diluted and 10 μL of each 10× compound I from working solutions for a concentration ranging from 10 μM to about 0.005 μM. Cisplatin was diluted to about […] to about 150 nM. The screening plates were then placed back into the incubator for the appropriate treatment time (3 days).
For the endpoint CTG reading, 50 μL of CellTiter-Glo® Reagent were added to each well. The contents were then mixed for 2 minutes on an orbital shaker to facilitate cell lysis. […] Luminescence was then recorded using an EnVision Multi Label Reader. IC50's were determined for each cell line.

The next series relates to HC44. The experiment in a line: Cell proliferation assay (CellTiter-Glo, 3 days treatment), HC44. In kind it is cell-based. To be noted: HCC44 (Lung), read-out: Absolute IC50.
Text: as §1, §2, §3, §4

The test system of the next series is MIA PaCa-2 (Pancreas). The experiment in a line: Cell proliferation assay (CellTiter-Glo, 3 days treatment), MIA PaCa-2. Type of series: cell-based. To be noted: read-out: Absolute IC50.
Text: as §1, §2, §3, §4

Another series concerns NCI-H23 (Lung). The experiment in a line: Cell proliferation assay (CellTiter-Glo, 3 days treatment), NCI-H23. Type of series: cell-based. To be noted: read-out: Absolute IC50.
Text: as §1, §2, §3, §4

A further series deals with NCI-H1792 (Lung). The experiment in a line: Cell proliferation assay (CellTiter-Glo, 3 days treatment), NCI-H1792. Type of series: cell-based. To be noted: read-out: Absolute IC50.
Text: as §1, §2, §3, §4

In a further series the test system is NCI-H2122 (Lung). The experiment in a line: Cell proliferation assay (CellTiter-Glo, 3 days treatment), NCI-H2122. To be noted: read-out: Absolute IC50. Type of series: cell-based.
Text: as §1, §2, §3, §4

In the next series the test system is SW1463 (rectum). The experiment in a line: Cell proliferation assay (CellTiter-Glo, 3 days treatment), SW1463. In kind it is cell-based. To be noted: read-out: Absolute IC50.
Text: as §1, §2, §3, §4

Another series concerns NCI-H1373 (Lung). The experiment in a line: Cell proliferation assay (CellTiter-Glo, 3 days treatment), NCI-H1373. Type of series: cell-based. To be noted: read-out: Absolute IC50.
Text: as §1, §2, §3, §4

Where [3] appears, read: ES1, pH 1.2 HCl solution (0.1N), 37° C.
[4] abbreviates: ES2, pH 4.5 acetate buffer (50 mM), 37° C.
Where [5] appears, read: ES3, pH 6.8 phosphate buffer (50 mM), 37° C.
[6] abbreviates: ES4, pH 7.4 phosphate buffer (50 mM), 37° C.

For the molecule `C=CC(=O)NCC(=O)N1CCN(Cc2cc3c(N4CCOCC4)nc(-c4cnc(NC(=O)OC)cc4C(F)(F)F)nn3c2)CC1.O=S(=O)(O)c1ccccc1` [Methyl (5-(6-((4-(acryloylglycyl)piperazin-1-yl)methyl)-4-morpholinopyrrolo[2,1-f][1,2,4]triazin-2-yl)-4-(trifluoromethyl)pyridin-2-yl) carbamate benzenesulfonate salt], the “hygroscopicity / water sorption behavior (DVS)” value in series [1] is “slightly hygroscopic”. The “solid form of the sample after the DVS test” value in [1] is on record as “still the Form A** of Compound I benzenesulfonate salt”. Besides, the “water uptake (DVS)” value in series [1] (from 40% to 95% RH) was “about 1.4%”. Further, the “solubility compared among forms” value in series [2] (37° C., 2 h and 24 h, 7 aqueous pH buffers and bio-relevant fluids) is recorded as “overall lower solubility than that of Form A of Compound I”. For the same molecule, the “Solubility for 2 h” value in series [2] (setting [3]) stood at 300 µg/mL; in series [2] (setting [4]), 200 µg/mL; in series [2] (setting [5]), 8.5 µg/mL; in series [2] (setting [6]), 5.7 µg/mL; in series [2] (ES5, SGF, pH 2.0, 37° C.), 200 µg/mL; in series [2] (ES6, FaSSIF-v1, pH 6.5, 37° C.) it was 19.6 µg/mL. Besides, the “Solubility for 2 h” value in series [2] (ES7, FeSSIF-v1, pH 5.0, 37° C.) turned out to be 700 µg/mL. Moreover, the “pH of supernatant, solubility for 2 h (pH)” value in [2] (setting [3]) was “(1.2)”; in [2] (setting [4]), “(4.5)”; in series [2] (setting [5]) it was “(6.7)”; in series [2] (setting [6]), “(7.3)”; in series [2] (ES5, SGF, pH 2.0, 37° C.), “(2.0)”; in series [2] (ES6, FaSSIF-v1, pH 6.5, 37° C.) it was “(6.3)”. In addition, in series [2] (ES7, FeSSIF-v1, pH 5.0, 37° C.), the “pH of supernatant, solubility for 2 h (pH)” value is recorded as “(5.0)”. The “Solubility for 24 h” value in series [2] (setting [3]) amounted to 400 µg/mL; in [2] (setting [4]) it was 300 µg/mL; in [2] (setting [5]), 6.9 µg/mL; in series [2] (setting [6]), 4.1 µg/mL; in [2] (ES5, SGF, pH 2.0, 37° C.), 300 µg/mL; in [2] (ES6, FaSSIF-v1, pH 6.5, 37° C.), 18.6 µg/mL. In series [2] (ES7, FeSSIF-v1, pH 5.0, 37° C.), the “Solubility for 24 h” value was 800 µg/mL. In addition, the “pH of supernatant, solubility for 24 h (pH)” value in series [2] (setting [3]) is listed as “(1.0)”; in [2] (setting [4]), “(4.4)”; in series [2] (setting [5]), “(6.6)”; in series [2] (setting [6]), “(7.3)”; in [2] (ES5, SGF, pH 2.0, 37° C.), “(1.8)”; in series [2] (ES6, FaSSIF-v1, pH 6.5, 37° C.), “(6.2)”. In [2] (ES7, FeSSIF-v1, pH 5.0, 37° C.), the “pH of supernatant, solubility for 24 h (pH)” value was “(4.9)”.

As to `N.N.[Cl][Pt][Cl]` [cisplatin, reference compound], the IC50 in the series on UM-UC-3 (bladder) worked out at 1.86 µM; in the series with SW756 (Cervix), 10.3 µM; in the series on SW837 (Rectum), 42.5 µM; in the series with KYSE-410 (HN/Esophagus), 15.8 µM; with Calu-1 (Lung) it was 10.2 µM; in the series with NCI-H358 (Lung) it was 12.5 µM. Further, the IC50 with HC44 came out at 7.96 µM; with MIA PaCa-2 (Pancreas), 7.03 µM; with NCI-H23 (Lung) it was 3.58 µM; in the series on NCI-H1792 (Lung), 4.88 µM; in the series with NCI-H2122 (Lung) it was 17.8 µM; with SW1463 (rectum), 12.2 µM. Moreover, in the series on NCI-H1373 (Lung), the IC50 is 8.72 µM.
